Assay results as given in ChEMBL document CHEMBL1134206 (Bioorg Med Chem Lett, 2001).

How the values were obtained:
[1] = target: T1, 5-hydroxytryptamine receptor 1A (Rattus norvegicus) (UniProt P19327); experiment: Ratio of binding affinity to 5-HT 1A and D2 receptor
T1 sequence (whole entry): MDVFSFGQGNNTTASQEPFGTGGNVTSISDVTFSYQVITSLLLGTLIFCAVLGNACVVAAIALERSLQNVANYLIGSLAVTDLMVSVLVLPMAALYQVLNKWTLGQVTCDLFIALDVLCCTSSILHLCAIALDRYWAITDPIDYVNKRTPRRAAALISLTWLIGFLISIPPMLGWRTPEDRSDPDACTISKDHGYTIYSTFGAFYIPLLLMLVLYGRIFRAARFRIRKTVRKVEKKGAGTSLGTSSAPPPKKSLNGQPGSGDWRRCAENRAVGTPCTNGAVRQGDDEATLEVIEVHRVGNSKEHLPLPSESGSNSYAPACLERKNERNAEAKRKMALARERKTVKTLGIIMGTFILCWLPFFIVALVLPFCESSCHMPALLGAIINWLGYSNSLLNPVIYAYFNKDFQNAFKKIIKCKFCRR

D(2) dopamine receptor = D(2) dopamine receptor (Rattus norvegicus, UniProt P61169); experiment: Binding affinity to Dopamine receptor D2 in of rat striatum membrane with [3H]- raclopride as radioligand; type: cell membranes
Rattus norvegicus = organism: Rattus norvegicus; experiment: Neuronal protective effect of compound against ischemic brain damage in rat t-MCAO model; type: functional
[2] = target: T2, 5-hydroxytryptamine receptor 1A (Rattus norvegicus, UniProt P19327); experiment: Binding affinity to 5-hydroxytryptamine 1A receptor of rat hippocampus with [3H]8-OH-DPAT as radioligand; type: tissue-based
T2 sequence (P19327 whole entry): T1 sequence (whole entry)

D(2) dopamine receptor, sequence (P61169 whole entry): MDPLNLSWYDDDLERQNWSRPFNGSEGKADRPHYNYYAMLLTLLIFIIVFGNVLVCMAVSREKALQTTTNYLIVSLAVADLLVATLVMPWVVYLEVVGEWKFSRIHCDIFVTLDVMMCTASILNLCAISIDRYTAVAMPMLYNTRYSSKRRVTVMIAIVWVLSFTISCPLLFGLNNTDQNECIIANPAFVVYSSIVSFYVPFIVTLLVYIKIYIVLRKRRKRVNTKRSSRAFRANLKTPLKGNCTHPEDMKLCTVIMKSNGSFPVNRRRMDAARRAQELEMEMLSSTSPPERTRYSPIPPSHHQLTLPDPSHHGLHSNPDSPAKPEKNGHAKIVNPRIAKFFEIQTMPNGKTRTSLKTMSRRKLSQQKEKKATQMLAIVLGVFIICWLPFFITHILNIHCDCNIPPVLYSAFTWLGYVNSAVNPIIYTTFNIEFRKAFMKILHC

With `O=C1c2ccccc2OC=C(Cl)N1CCCCN1CCN(c2ccccn2)CC1` the Ratio [1] was 66.
Work on `O=C1c2ccccc2OC=C(Cl)N1CCCCN1CC=C(c2ccccn2)CC1` [PICLOZOTAN] yielded a Ratio [1] of 179, an IC50 (D(2) dopamine receptor) of 84 nM and an Inhibition (Rattus norvegicus) of 63%.
Compound `O=C1c2ccccc2OC=C(Cl)N1CCCCN1CCN(c2ncccn2)CC1` has an IC50 [2] of 1.59 nM, a Ratio [1] of 125 and an IC50 (D(2) dopamine receptor) of 199 nM.
Compound `O=C1c2ccccc2OC=CN1CCCCN1CCN(c2ncccn2)CC1` has an IC50 [2] of 18 nM.
For `Cc1c(N(C)C)c(=O)n(-c2ccccc2)n1C` [AMINOPYRINE], the Inhibition (Rattus norvegicus) was 21%.
Work on `CC1=COc2ccccc2C(=O)N1CCCCN1CCN(c2ncccn2)CC1` yielded an IC50 [2] of 10.2 nM, a Ratio [1] of 108 and an IC50 (D(2) dopamine receptor) of 1100 nM.
